Laboratory results published in patent US20230365571A1, “COMPOUNDS AND COMPOSITIONS AS Sppl2a INHIBITORS” (Novartis AG, priority 2020, published 2023).

Key:
human SPPL2a [1] = target: T1, human SPPL2a (Homo sapiens, UniProt Q8TCT8); experiment: Sppl2a RGA (reporter gene assay) in HEK293 cells; type: cell-based; set-up: expressed in transfected cells; host or cells: HEK293 (transient); conditions: NT-TNF-VP16-Gal4 substrate, Gal4-luciferase reporter, 24 h
T1 sequence (Q8TCT8 26-520): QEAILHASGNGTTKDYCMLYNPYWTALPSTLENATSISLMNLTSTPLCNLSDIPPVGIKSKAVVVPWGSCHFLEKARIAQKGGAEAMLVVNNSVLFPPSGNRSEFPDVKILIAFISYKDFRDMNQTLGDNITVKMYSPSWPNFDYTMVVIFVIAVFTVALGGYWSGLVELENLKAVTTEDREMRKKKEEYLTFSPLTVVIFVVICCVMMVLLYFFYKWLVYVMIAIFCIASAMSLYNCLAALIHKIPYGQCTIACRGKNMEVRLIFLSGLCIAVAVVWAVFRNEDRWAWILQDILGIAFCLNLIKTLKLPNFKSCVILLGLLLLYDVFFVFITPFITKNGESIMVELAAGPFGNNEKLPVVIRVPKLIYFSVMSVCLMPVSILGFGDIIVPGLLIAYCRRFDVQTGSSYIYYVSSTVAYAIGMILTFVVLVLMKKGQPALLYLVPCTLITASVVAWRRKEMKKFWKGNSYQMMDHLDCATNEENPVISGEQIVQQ
Text: Sppl2a RGA (Reporter Gene Assay):
Sppl2a is an intramembrane aspartyl protease with similarities to presenilin, the active subunit of the γ-secretase complex. The assay is based on the coupling of the proteolytic degradation of a membrane bound synthetic substrate (VP16-Gal4 fusion protein with the N-terminal domain of TNF alpha), which migrates to the nucleus upon cleavage, with the Gal4 driven expression of luciferase. Inhibition of Sppl2a results in a reduction of nuclear VP16-Gal4 activator and therefore in a reduction of the production of luciferase. The luciferase dependent-luminescence is plotted against the concentrations of compound to generate a dose response curve, which allows the calculation of the IC50 value.
DNA vectors encoding human Sppl2a, NT-TNF-VP16-Gal4 and a Gal4-luciferase reporter were transiently transfected in HEK293 cells. In a typical experiment 5 μg plasmid for SPPL2a, 10 μg plasmid encoding the reporter Gal4-luciferase and 20 μg plasmid encoding the substrate NT-TF-VP16-Gal4 were mixed together. The DNA mixture was combined with 107 μl FuGENE® (Promega), 735 μl Opti-MEM® (Life Technologies) and incubated for 5 minutes at RT. To this mixture 20 mL of concentrated HEK293 cells were added and thoroughly mixed. The cell suspension was distributed to a white solid 384 well plate. Within 5 hours, 50 nl of compound in DMSO was stamped into the wells via pintool. The plate was incubated for 24 h at 37° C., 5% CO2 in a humidified incubator, before the addition of 25 μl Bright Glo. After incubation at RT for 5 min, the plate was transferred to a luminometer and the luminescence was measured. The IC50 was determined by plotting compound concentration vs. normalized luminescence values.

human SPPL2a [2] = target: T1, human SPPL2a; experiment: Sppl2a TL (translocation) imaging assay in U-2 OS cells; type: cell-based; set-up: expressed in transfected cells; conditions: U-2 OS cells expressing human SPPL2a and EGFP-TNFα(aa1-76) NTF substrate; 24 h
Description: SPPL2a, TL in U-2 OS Cells. Stable U-2 OS cell lines expressing human SPPL2a constitutively and a EGFP-labeled TNFα(aa1-76) NTF substrate under a doxycycline-regulated promoter were used for the imaging assays. Cells were seeded at 3000 cells/30 μL/384-well in DMEM/GlutaMax™-I (Invitrogen) supplemented with tetracycline-free 10% FBS (Amimed) and incubated at 37° C., 5% CO2 for 3-4 h. Subsequently, 3.3 μL of inhibitors, prediluted in doxycycline-containing medium for 11-point concentration-response curves, were added to each well using a CyBi well liquid handling device (Cybio AG, Jena, Germany) to result in final inhibitor concentrations ranging from 100 μM to 1 nM (final DMSO concentration 0.9% (v/v)) and 5 μg/mL doxycycline). The cells were incubated with inhibitor at 37° C., 5% CO2 for 24 h. Thereafter cell were fixed in 4% PFA/PBS and in parallel, nuclei were stained with Hoechst (Invitrogen) 1:5000 in PBS for 30 min. The plates were imaged using a Cellomics ArrayScan VTI HCS reader with 10×/0.3NA objective (Thermo Fisher Scientific, USA). Six images per well were acquired. Images for the EGFP signal (Ex395, Em509) and the Hoechst nuclear dye (Ex350, Em425) were acquired simultaneously with image analysis using the “Nuclear Translocation” assay algorithm of the Cellomics ArrayScan software. Nuclei were detected based on the Hoechst staining, the nuclear mask was transferred to the EGFP channel, and a 4 pixel wide cytoplasm ring region was defined around the nucleus. The intensity of the EGFP signal was measured both in the nuclear and in the cytoplasm ring region of each individual cell (in general 800-1000 individual cells were analyzed per well), and the difference of the average nuclear versus average cytoplasmic intensity of the EGFP signal was calculated (“CircRingAvgIntenDiffCh2”=“CircAvgIntenCh2”−“RingAvgIntenCh2”). Additionally the number of cells were acquired (feature termed “ValidCellCount”) and used to calculate cell toxicity (CC50). Percent inhibition was calculated relative to the positive (0.5 μM LY-411,575=100% inhibition) and negative (DMSO=0% inhibition) controls. The IC50 value was calculated from the plot of percentage of inhibition vs inhibitor concentration using nonlinear regression analysis software, e.g., Origin (OriginLab Corp.).

Structure (SMILES) | IC50 (human SPPL2a [1]) [nM] | IC50 (human SPPL2a [2]) [nM]
O=C(NC[C@H](C(=O)N[C@@H]1C(=O)N2CCCN2C(=O)c2ccccc21)C(F)(F)F)c1sc(-c2ccc(C(F)(F)F)nc2)nc1Cl [Example 40, 4-Chloro-N-((R)-2-(((S)-5,11-dioxo-2,3,10,11-tetrahydro-1H,5H-benzo[d]pyrazolo [1,2-a][1,2]diazepin-10-yl)carbamoyl)-3,3,3-trifluoropropyl)-2-(6-(trifluoromethyl)pyridin-3-yl)thiazole-5-carboxamide] | 42 | 57
Cc1cc(-c2nc(C)c(C(=O)NC[C@H](C(=O)N[C@@H]3C(=O)N4CCCN4C(=O)c4ccccc43)C3CC3)s2)on1 [Example 41, N-((R)-2-Cyclopropyl-3-(((S)-5,11-dioxo-2,3,10,11-tetrahydro-1H,5H-benzo[d]pyrazolo [1,2-a][1,2]diazepin-10-yl)amino)-3-oxopropyl)-4-methyl-2-(3-methylisoxazol-5-yl)thiazole-5-carboxamide] | 37 | 59
CC[C@H](CNC(=O)c1scnc1Cl)C(=O)N[C@@H]1C(=O)N2CC3(CC3)CN2C(=O)c2ccccc21 [Example 49, 4-Chloro-N-((R)-2-(((S)-5,11-dioxo-10,11-dihydro-1H,3H,5H-spiro [benzo[d]pyr-azolo[1,2-a][1,2]diazepine-2,1″-cyclopropan]-10-yl)carbamoyl)butyl) thiazole-5-carboxamide] | 89 | 91
O=C(NC[C@H](C(=O)N[C@@H]1C(=O)N2CCCN2Cc2c(F)cccc21)C1CC1)c1sc(C2CC2)nc1Cl [Example 54, 4-Chloro-2-cyclopropyl-N-((R)-2-cyclopropyl-3-(((S)-6-fluoro-11-oxo-2,3,10,11-tetrahydro-1H,5H-benzo[d]pyrazolo [1,2-a][1,2]diazepin-10-yl)amino)-3-oxopropyl)thiazole-5-carboxamide] | 48 | 129
CC[C@H](CNC(=O)c1ccnn1C(F)F)C(=O)N[C@@H]1C(=O)N2CC3(CC3)CN2C(=O)c2ccccc21 [Example 56, 1-(Difluoromethyl)-N-((R)-2-(((S)-5,11-dioxo-10,11-dihydro-1H,3H,5H-spiro[benzo[d]pyr-azolo[1,2-a][1,2]diazepine-2,1′-cyclopropan]-10-yl)carbamoyl)butyl)-1H-pyrazole-5-carboxamide] | 101 | 191
CC[C@H](CNC(=O)c1scnc1C(F)(F)F)C(=O)N[C@@H]1C(=O)N2CC3(CC3)CN2C(=O)c2ccccc21 [Example 57, N-((R)-2-(((S)-5,11-Dioxo-10,11-dihydro-1H,3H,5H-spiro[benzo[d]pyr-azolo[1,2-a][1,2]diazepine-2,1′-cyclopropan]-10-yl)carbamoyl)butyl)-4-(trifluoromethyl) thiazole-5-carboxamide] | 148 | 332
CC[C@H](CNC(=O)c1sc(C2CC2)nc1C(F)(F)F)C(=O)N[C@@H]1C(=O)N2CC3(CC3)CN2C(=O)c2ccccc21 [Example 59, 2-Cyclopropyl-N-((R)-2-(((S)-5,11-dioxo-10,11-dihydro-1H,3H,5H-spiro[benzo[d]pyr-azolo[1,2-a][1,2]diazepine-2,1′-cyclopropan]-10-yl)carbamoyl)butyl)-4-(trifluoromethyl) thiazole-5-carboxamide] | 661 | 555

The next lines start with the values.

IC50 (human SPPL2a [1]) [nM] | IC50 (human SPPL2a [2]) [nM] | Structure (SMILES)
27 | 67 | Cc1nc(C2=CCOCC2)sc1C(=O)NC[C@H](C(=O)N[C@@H]1C(=O)N2CCCN2Cc2ccccc21)C(F)(F)F [Example 44, 2-(3,6-Dihydro-2H-pyran-4-yl)-4-methyl-N-((R)-3,3,3-trifluoro-2-(((S)-11-oxo-2,3,10,11-tetrahydro-1H,5H-benzo[d]pyrazolo [1,2-a][1,2]diazepin-10-yl)carbamoyl)pro-pyl)thiazole-5-carboxamide]
22 | 85 | Cc1noc(C)c1C(=O)NC[C@H](C(=O)N[C@@H]1C(=O)N2CCCN2C(=O)c2ccccc21)C(F)(F)F [Example 48, N-((R)-2-(((S)-5,11-Dioxo-2,3,10,11-tetrahydro-1H,5H-benzo[d]pyrazolo [1,2-a][1,2]diazepin-10-yl)carbamoyl)-3,3,3-trifluoropropyl)-3,5-dimethylisoxazole-4-carboxamide]
52 | 99 | CC[C@H](CNC(=O)c1oncc1C)C(=O)N[C@@H]1C(=O)N2CCCN2Cc2ccccc21 [Example 51, 4-Methyl-N-((R)-2-(((S)-11-oxo-2,3,10,11-tetrahydro-1H,5H-benzo[d]pyrazolo [1,2-a][1,2]diazepin-10-yl)carbamoyl)butyl) isoxazole-5-carboxamide]
152 | 163 | Cc1nc(Cl)c(C(=O)NC[C@H](C(=O)N[C@@H]2C(=O)N3CCCN3Cc3c(F)cccc32)C2CC2)s1 [Example 55, 4-Chloro-N-((R)-2-cyclopropyl-3-(((S)-6-fluoro-11-oxo-2,3,10,11-tetrahydro-1H,5H-benzo[d]pyrazolo [1,2-a][1,2]diazepin-10-yl)amino)-3-oxopropyl)-2-methylthiazole-5-carboxamide]
194 | 373 | Cc1nc(Cc2ccccc2)sc1C(=O)NC[C@@H](C)C(=O)N[C@@H]1C(=O)N2CCCN2Cc2ccccc21 [Example 58, 2-Benzyl-4-methyl-N-((R)-2-methyl-3-oxo-3-(((S)-11-oxo-2,3,10,11-tetrahydro-1H,5H-benzo[d]pyrazolo [1,2-a][1,2]diazepin-10-yl)amino)propyl) thiazole-5-carboxamide]
277 | 580 | Cc1ccn(C)c1C(=O)NC[C@@H](C)C(=O)N[C@@H]1C(=O)N2CCCN2Cc2ccccc21 [Example 60, 1,3-dimethyl-N-((R)-2-methyl-3-oxo-3-(((S)-11-oxo-2,3,10,11-tetrahydro-1H,5H-benzo[d]pyrazolo [1,2-a][1,2]diazepin-10-yl)amino)propyl)-1H-pyrrole-2-carboxamide]
691 | 686 | C[C@H](CNC(=O)c1ccnn1C)C(=O)N[C@@H]1C(=O)N2CCCN2Cc2ccccc21 [Example 61, 1-methyl-N-((R)-2-methyl-3-oxo-3-(((S)-11-oxo-2,3,10,11-tetrahydro-1H,5H-benzo[d]pyrazolo [1,2-a][1,2]diazepin-10-yl)amino)propyl)-1H-pyrazole-5-carboxamide]
